# Measurements as given in patent US11185068B2, “Diluent for sperm and method for preserving sperm using same” (Livestock Improvement Association of Japan, Inc., priority 2016, dated 2021).
# Tested on: thawed bovine sperm
# Experimental: Semen collected from a breeding bull kept at Livestock Improvement Association of Japan was diluted with primary and secondary diluents prepared in the same manner as in Example 1 except that 30 g of fructo-oligosaccharide or 30 g of isomalto-oligosaccharide was added. The semen was diluted so that the final concentration of glycerin was 7%, thereby obtaining diluted sperm solutions. As a control group with soybean lecithin and devoid of fructo-oligosaccharide and isomalto-oligosaccharide, semen was diluted with the diluent described in Example 1 of Patent Document 4, the diluent having a final glycerin concentration of 7%. As a control group with egg yolk and devoid of fructo-oligosaccharide and isomalto-oligosaccharide, semen was diluted with the diluent described in Patent Document 1, produced and sold by Livestock Improvement Association of Japan for preparation of frozen semen, the diluent having a final glycerin concentration of 6.5%. Semen was diluted with each of these diluents so that the diluted semen contained 80 million sperm per ml. The second diluent was added to the primarily diluted semen at a ratio of 1:1 so that the semen contained 40 million sperm per ml. Straws for artificial insemination were then prepared by conventional methods. Cryopreservation was performed using liquid nitrogen by conventional methods. […]
row,Substance,adverse influence on the oocyte penetration ability of sperm and the development ability of fertilized embryo
1,fructo-oligosaccharide,substantially no adverse influence
2,isomalto-oligosaccharide,substantially no adverse influence
